Read-outs that look alike come from different tables or passages of the source.

What all share (type): in vivo
One experiment concerns Pyricularia oryzae. The conditions noted are these: for Test C disease control rating: rice blast; for Test C disease control rating (100 = 100% disease control, 0 = no disease control): rice seedlings sprayed to run-off, inoculated the following day, rating relative to controls, unmarked compounds (standard test rate).
The test system of another experiment is Phytophthora infestans. Particulars: for Test D disease control rating: tomato late blight; for Test D disease control rating (100 = 100% disease control, 0 = no disease control): tomato seedlings sprayed to run-off, inoculated the following day, rating relative to controls, unmarked compounds (standard test rate).
Another experiment deals with Botrytis cinerea. In words: Test E: gray mold, preventive spray on cucumber seedlings. Particulars: for Test E disease control rating: gray mold on cucumber; for Test E disease control rating (100 = 100% disease control, 0 = no disease control): cucumber seedlings sprayed to run-off, inoculated the following day, rating relative to controls, unmarked compounds (standard test rate). Put shortly:
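Preventive spray on cucumber seedlings used a suspension (3% acetone, 250 ppm Trem 014), applied to run-off one day before inoculation with Botrytis cinerea spores. Plants were held 48 h at 20° C in saturated air, then 5 days at 20° C. Percent disease control was scored relative to untreated plants.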

The subject of experiment [1] is Eiysiphe graminis f. sp. tritici. The experiment can be described thus: Test A: wheat powdery mildew, preventive spray on wheat seedlings. Particulars: for Test A disease control rating: wheat powdery mildew; for Test A disease control rating (100 = 100% disease control, 0 = no disease control): wheat seedlings sprayed to run-off, inoculated the following day, rating relative to controls, unmarked compounds (standard test rate). In a few lines: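 Preventive test: seedlings inoculated with powdery mildew spores one day after run-off spraying of a suspension. Ratings after 7 days in a 20° C growth chamber express percent disease control versus controls.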

The next experiment relates to Puccinia recondita. In words: Test B: wheat leaf rust, preventive spray on wheat seedlings. The conditions noted are these: for Test B disease control rating: wheat leaf rust; for Test B disease control rating (100 = 100% disease control, 0 = no disease control): wheat seedlings sprayed to run-off, inoculated the following day, rating relative to controls, unmarked compounds (standard test rate). Put shortly: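 Preventive test: P. recondita spores were applied one day after a run-off spray of compound suspension on wheat seedlings. Plants had 24 h at 20 °C in saturated air plus 6 days in a 20 °C growth chamber. Scoring is % disease control (100 = full) relative to controls.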

Where [2] appears, read: 100 = 100% disease control, 0 = no control, unmarked entries (standard test concentration).
Setting [3] is: 100 = 100% disease control, 0 = no control relative to controls, unmarked entries (standard test concentration).

Regarding `CCC1(C(=O)NC(C)CCn2cc(Cl)cc2C#N)C(C)C1(Cl)Cl` (mixture of isomers) [compound 144], the “Test C disease control rating” value in the experiment on Pyricularia oryzae (setting [2]) is on record as 53%. In addition, the “Test D disease control rating” value with Phytophthora infestans (setting [2]) is reported as 0%. Further, the “Test E disease control rating” value in the experiment on Botrytis cinerea (setting [2]) stood at 0%. Moreover, the “Test A disease control rating” value in experiment [1] (setting [3]) is reported as 0%. Also, in the experiment with Puccinia recondita (setting [2]), the “Test B disease control rating” value turned out to be 28%.
`CCC1(C(=O)NC(C)COc2cc(Cl)cc(Cl)c2)C(C)C1(Cl)Cl` (stereo not drawn) [compound 115]: the “Test C disease control rating” value with Pyricularia oryzae (tested at 40 ppm) came out at 32%. Further, the “Test D disease control rating” value with Phytophthora infestans (tested at 40 ppm) was determined as 0%. In addition, in the experiment with Botrytis cinerea (tested at 40 ppm), the “Test E disease control rating” value was found to be 0%. In addition, the “Test A disease control rating” value in experiment [1] (tested at 40 ppm) worked out at 52%. Further, in the experiment on Puccinia recondita (tested at 40 ppm), the “Test B disease control rating” value turned out to be 0%.
Turning to `C=CC(C)(CF)C(C#N)C(=O)NC(C)COc1cc(F)ccc1F` (mixture of isomers) [compound 218], the “Test C disease control rating (100 = 100% disease control, 0 = no disease control)” value in the experiment on Pyricularia oryzae was 100%. Besides, in the experiment on Phytophthora infestans, the “Test D disease control rating (100 = 100% disease control, 0 = no disease control)” value is recorded as 17%. Further, the “Test E disease control rating (100 = 100% disease control, 0 = no disease control)” value in the experiment on Botrytis cinerea was determined as 0%. Also, in experiment [1], the “Test A disease control rating (100 = 100% disease control, 0 = no disease control)” value stood at 86%. The “Test B disease control rating (100 = 100% disease control, 0 = no disease control)” value in the experiment with Puccinia recondita was 68%.
The matching figures for `C=CCC(C#N)C(=O)NC(C)C(Oc1ccccc1C#N)c1ccccc1` (mixture of isomers) [compound 285]: 97%, 0%, 0%, 59% and 0%.
Taken in the same sequence, the figures for `CCC1(C(=O)NC(C)COc2c(Br)cc(F)cc2Br)C(C)C1(Cl)Cl` (stereo not drawn) [compound 250] were 52%, 0%, 85%, 0% and 0%.
Turning to `C[C@H](COc1cccc(C(F)(F)F)c1)NC(=O)C(C#N)C(C)(C)C` (single isomer, unassigned) [18b], in the experiment with Pyricularia oryzae (setting [2]), the “Test C disease control rating” value is 94%. Further, the “Test D disease control rating” value in the experiment on Phytophthora infestans (setting [2]) was determined as 0%. The “Test E disease control rating” value in the experiment on Botrytis cinerea (setting [2]) stood at 0%. Also, the “Test A disease control rating” value in experiment [1] (setting [3]) worked out at 77%. Moreover, the “Test B disease control rating” value with Puccinia recondita (setting [2]) is recorded as 0%.
Consider `CCC1(C(=O)NC(C)COc2cc(F)cc(F)c2)C(C)C1(Cl)Cl` (stereo not drawn) [compound 234], for which the “Test C disease control rating (100 = 100% disease control, 0 = no disease control)” value with Pyricularia oryzae worked out at 100%. For the same molecule, in the experiment on Phytophthora infestans, the “Test D disease control rating (100 = 100% disease control, 0 = no disease control)” value was found to be 0%. The “Test E disease control rating (100 = 100% disease control, 0 = no disease control)” value in the experiment with Botrytis cinerea was 0%. In addition, the “Test A disease control rating (100 = 100% disease control, 0 = no disease control)” value in experiment [1] stood at 0%. Moreover, in the experiment with Puccinia recondita, the “Test B disease control rating (100 = 100% disease control, 0 = no disease control)” value is 0%.
Consider `CCC1(C(=O)NC(C)COc2ccc(F)cc2)C(C)C1(Cl)Cl` (mixture of isomers) [80b], for which, in the experiment with Pyricularia oryzae (tested at 40 ppm), the “Test C disease control rating” value stood at 97%. Also, in the experiment on Phytophthora infestans (tested at 40 ppm), the “Test D disease control rating” value was 0%. Also, the “Test E disease control rating” value with Botrytis cinerea (tested at 40 ppm) came out at 0%. Further, the “Test A disease control rating” value in experiment [1] (tested at 40 ppm) was determined as 83%. Moreover, the “Test B disease control rating” value with Puccinia recondita (tested at 40 ppm) is reported as 0%.
Regarding `CCC1(C(=O)NC(C)COc2ccccc2I)C(C)C1(Cl)Cl` (mixture of isomers) [87a], the “Test C disease control rating” value in the experiment on Pyricularia oryzae (tested at 40 ppm) is listed as 74%. Further, the “Test D disease control rating” value in the experiment with Phytophthora infestans (tested at 40 ppm) was 0%. For the same molecule, in the experiment with Botrytis cinerea (tested at 40 ppm), the “Test E disease control rating” value amounted to 0%. The “Test A disease control rating” value in experiment [1] (tested at 40 ppm) was found to be 0%. The “Test B disease control rating” value in the experiment on Puccinia recondita (tested at 40 ppm) was 0%.
Consider `C[C@H](COc1ccc(Br)cc1)NC(=O)C(C#N)C(C)(C)C` (single isomer, unassigned) [10d], for which the “Test C disease control rating” value with Pyricularia oryzae (setting [2]) is given as 74%. The “Test D disease control rating” value with Phytophthora infestans (setting [2]) turned out to be 35%. For the same molecule, the “Test E disease control rating” value with Botrytis cinerea (setting [2]) was found to be 45%. Also, the “Test A disease control rating” value in experiment [1] (setting [3]) is 77%. For the same molecule, the “Test B disease control rating” value in the experiment on Puccinia recondita (setting [2]) is 0%.
Consider `CC(C)C(C#N)C(=O)NC(C)C(Oc1cc(F)ccc1C#N)c1ccccc1` (mixture of isomers) [compound 289], for which the “Test C disease control rating (100 = 100% disease control, 0 = no disease control)” value in the experiment with Pyricularia oryzae is listed as 90%. In the experiment with Phytophthora infestans, the “Test D disease control rating (100 = 100% disease control, 0 = no disease control)” value is listed as 45%. Further, the “Test E disease control rating (100 = 100% disease control, 0 = no disease control)” value with Botrytis cinerea is 0%. Further, the “Test A disease control rating (100 = 100% disease control, 0 = no disease control)” value in experiment [1] is 0%. The “Test B disease control rating (100 = 100% disease control, 0 = no disease control)” value in the experiment on Puccinia recondita is 0%.
As to `CC(COc1ccccc1F)NC(=O)C(C#N)C(C)(C)C` (mixture of isomers) [2a], in the experiment on Pyricularia oryzae (setting [2]), the “Test C disease control rating” value is recorded as 0%. For the same molecule, in the experiment on Phytophthora infestans (setting [2]), the “Test D disease control rating” value stood at 0%. Moreover, the “Test E disease control rating” value with Botrytis cinerea (setting [2]) is 55%. For the same molecule, in experiment [1] (setting [3]), the “Test A disease control rating” value came to 0%. Also, the “Test B disease control rating” value in the experiment on Puccinia recondita (setting [2]) is reported as 0%.
With `C#CC(C)(C)C(C#N)C(=O)NC(C)COc1cc(F)ccc1F` (mixture of isomers) [compound 211], in the experiment with Pyricularia oryzae (setting [2]), the “Test C disease control rating” value was 100%. The “Test D disease control rating” value in the experiment with Phytophthora infestans (setting [2]) came to 76%. For the same molecule, the “Test E disease control rating” value in the experiment on Botrytis cinerea (setting [2]) is 0%. The “Test A disease control rating” value in experiment [1] (setting [3]) is listed as 63%. Besides, the “Test B disease control rating” value with Puccinia recondita (setting [2]) is listed as 0%.
Regarding `CC(COc1cc(Br)ccc1C#N)NC(=O)C(C#N)C(C)(C)C` (mixture of isomers) [compound 44], the “Test C disease control rating” value in the experiment on Pyricularia oryzae (setting [2]) stood at 94%. Besides, the “Test D disease control rating” value with Phytophthora infestans (setting [2]) came out at 89%. For the same molecule, in the experiment on Botrytis cinerea (setting [2]), the “Test E disease control rating” value is 0%. Also, the “Test A disease control rating” value in experiment [1] (setting [3]) is given as 0%. The “Test B disease control rating” value in the experiment with Puccinia recondita (setting [2]) amounted to 0%.
`CCC(=CCNC(=O)C1(CC)C(C)C1(Cl)Cl)c1ccccc1` (stereo not drawn) [compound 269]: the “Test C disease control rating (100 = 100% disease control, 0 = no disease control)” value with Pyricularia oryzae is 94%. Also, the “Test D disease control rating (100 = 100% disease control, 0 = no disease control)” value with Phytophthora infestans turned out to be 74%. The “Test E disease control rating (100 = 100% disease control, 0 = no disease control)” value in the experiment with Botrytis cinerea was 0%. Further, the “Test A disease control rating (100 = 100% disease control, 0 = no disease control)” value in experiment [1] came to 98%. Further, the “Test B disease control rating (100 = 100% disease control, 0 = no disease control)” value in the experiment on Puccinia recondita was found to be 0%.
Take `CCC1(C(=O)NCC=C(C)c2cc(Cl)ccc2Cl)C(C)C1(Cl)Cl` (stereo not drawn) [compound 271]: the “Test C disease control rating (100 = 100% disease control, 0 = no disease control)” value in the experiment with Pyricularia oryzae was determined as 94%. Further, the “Test D disease control rating (100 = 100% disease control, 0 = no disease control)” value in the experiment with Phytophthora infestans is given as 96%. The “Test E disease control rating (100 = 100% disease control, 0 = no disease control)” value in the experiment with Botrytis cinerea is recorded as 0%. The “Test A disease control rating (100 = 100% disease control, 0 = no disease control)” value in experiment [1] was determined as 77%. In addition, the “Test B disease control rating (100 = 100% disease control, 0 = no disease control)” value in the experiment on Puccinia recondita stood at 0%.
Take `C[C@H](COc1cc(Cl)cc(Cl)c1Cl)NC(=O)C(C#N)C(C)(C)C` (single isomer, unassigned) [170b]: the “Test C disease control rating” value with Pyricularia oryzae (setting [2]) was 53%. The “Test D disease control rating” value in the experiment on Phytophthora infestans (setting [2]) came out at 23%. Besides, the “Test E disease control rating” value in the experiment with Botrytis cinerea (setting [2]) is 95%. In addition, in experiment [1] (setting [3]), the “Test A disease control rating” value was 61%. In addition, in the experiment on Puccinia recondita (setting [2]), the “Test B disease control rating” value is on record as 68%.
Taken in the same sequence, the figures for `CC(COc1cc(F)ccc1Cl)NC(=O)C(C#N)C(C)(C)C` (mixture of isomers) [191c] were 100%, 23%, 0%, 86% and 0%.

For the origin of these results see patent US6642392B1 (priority 1997, dated 2003).
